Test results as given in patent US20160120950A1, “Pharmaceutical Formulations Comprising Incretin Mimetic Peptide and Aprotic Polar Solvent” (Amylin Pharmaceuticals, LLC, priority 2008, published 2016).

Columns and labels:
[1] = system: cloned GLP-1 receptor; details: cells transfected with the cloned GLP-1 receptor; cited from earlier work
[2] = Stability of exendin-4 in DMSO and DMSO/0.5% water, SEC-HPLC potency (Example 1); format: physicochemical; details: in DMSO and DMSO with 0.5% water, up to 6 months at 5, 25, 40° C.
Experimental: (§1) The stability of exendin-4 in DMSO and DMSO with 0.5% water added may be evaluated as follows. The evaluation may be based on the stability of exendin-4 samples stored at 5, 25, and 40° C. for up to 6 months. Further, the stability of exendin-4 in DMSO, as compared to aqueous buffers at a pH of 4.5 may be evaluated.
(§2) Three HPLC methods may be used to analyze the samples: size exclusion HPLC (SEC-HPLC) to determine potency (mg/ml) and two methods to evaluate purity (%), a strong cation exchange (SCX) method and a reversed-phase (RP) method. The methods may be adapted as necessary to achieve appropriate sample analysis. Additionally, the water content of the samples may be evaluated using a suitable Karl Fischer analytical procedure.
For example, SEC-HPLC can be used to measure the potency of an exendin-4 solution by external standard assay, based on total peptide content of the exendin-containing solution at 214 nm, as compared to qualified reference standard solutions. The identity, potency and label strength of exendin-4 can be established by comparison of the retention times of the exendin-4 peaks in the sample and reference standard solutions.
For a six-month delivery period, approximately 3600 μg of exendin-4 may be desirable based on a 20 μg/day dose. Assuming a representative delivery reservoir of approximately 150 μL, a concentration of about 25 mg/mL may be desirable. […]

[3] = Stability of exendin-4 in DMSO, DMSO/0.5% water and aqueous buffer pH 4.5, SCX-HPLC purity (Example 1); format: physicochemical; details: FIGS. 3 and 4, 25° C. and 40° C.
Experimental: as §1, §2
For a six-month delivery period, approximately 3600 μg of exendin-4 may be desirable based on a 20 μg/day dose. Assuming a representative delivery reservoir of approximately 150 μL, a concentration of about 25 mg/mL may be desirable. Further, proteins and peptides are commonly lyophilized and often include some residual moisture. As such, the effect of water on peptide stability may be investigated, and samples may be prepared in neat DMSO and in DMSO with 0.5% water added.
This concentration of water will depress the 18.6° C. freezing point of DMSO to only about 17.5° C. […]

[4] = Stability of exendin-4 in DMSO formulations, text summary of SCX- and RP-HPLC purity (Example 1, FIGS. 1 and 2); format: physicochemical
Experimental: as §1, §2
More particularly, 25 mg/mL samples of exendin-4 in neat DMSO and DMSO/0.5% water are prepared in N2 atmosphere and held at 5, 25, and 40° C. for 6 months (abbreviated as “mos.”).
Exendin-4 may be formulated in DMSO and DMSO spiked with 0.5% water. […] Exendin-4 purity is reduced about 28% from initial values after 6 months at 40° C. At 25° C., the purity is decreased about 3 to 4% over the same time period. (See FIGS. 1 and 2). However, at 5° C. the purity remains within 0.4 to 0.6% of initial purity values. […] By comparison to aqueous product stability (FIGS. 3 and 4), it is apparent that exendin-4 stability is improved in the aprotic, polar solvent DMSO.

[5] = Exendin-4 stability in aprotic, polar solvent systems, SCX-Purity (Example 2); format: physicochemical; details: 10% w/w water (0.67 mole fraction DMSO)
Experimental: The stability of exendin-4 in other aprotic, polar solvents and in DMSO-based co-solvent systems may also be evaluated. The evaluation may be based on the stability of exendin-4 samples stored at 5, 25, and 37° C. for up to 6 months. In addition to dimethyl sulfoxide (DMSO), solvents for evaluation include water, dimethyl acetamide (DMA), dimethyl formamide (DMF), N-methylpyrrolidone (NMP), Propylene carbonate, and ethyl acetate.
as §2, with “The methods may be adapted as necessary to achieve appropriate sample analysis.” left out
Nonaqueous Solvents: The stability of exendin-4 in aprotic, polar solvents with freezing points lower than 0° C. may be evaluated. […]
Co-solvent System with Water: Water at approximately 8% w/w depresses the freezing point of DMSO to just below 0° C. To provide additional protection against freezing, a 10% w/w water solution may be evaluated. […]
Co-solvent Systems with Aprotic, Polar Solvents: Other solvents can also be used to depress the freezing point of DMSO. […] Appropriate amounts of the non-aqueous solvent may first be determined. Next the solubility of exendin-4 may be evaluated by visual inspection in the co-solvent mixture. […]

Substance | activity at the cloned GLP-1 receptor (cAMP) [1] | changes in potency [2] | stability in DMSO by comparison to aqueous product stability [3] | difference due to the presence of 0.5% water ([4]; DMSO vs DMSO spiked with 0.5% water) | purity reduced from initial values ([4]; in DMSO and DMSO with 0.5% water, 6 months at 40° C.) | stability of exendin-4 in DMSO solvent solution containing 10% w/w water [5]
exendin[9-39] | antagonist | – | – | – | – | –
Exendin-4 | agonist | Essentially no changes | improved | no substantial difference | about 28% | enhanced
